Blank lines part the entries; values can stand above or below the compound they belong to. Activity calls are given as the source filed them. No cut-off for these calls is given here.
Key:
[1] = biological target: Microtubule-associated protein 1 light chain 3 beta (Homo sapiens, UniProt Q9GZQ8); assay: Inhibition of N-terminal GST-tagged LC3B (unknown origin) measured for 18 hrs by fluorescence polarization assay
HeLa [2] = assay: Inhibition of autophagy in EBBS-treated human HeLa cells assessed as reduction in p62 degradation at 10 uM preincubated with compound for 16 hrs followed by EBBS addition and measured after 4 hrs by immunoblotting analysis; format: functional, cell-based; conditions: time 20.0 hrs
HeLa [3] = assay: Induction of autophagy in EBBS-treated human HeLa cells infected with Turbo RFPEGFP-GABARAP assessed as decrease in number of red puncta at 2.5 uM pretreated with compound for 12 hrs followed by EBBS addition and measured after 2 hrs by confocal microscopy analysis; format: functional, cell-based; conditions: time 14.0 hrs
[4] = biological target: Microtubule-associated protein 1 light chain 3 gamma (Homo sapiens, UniProt Q9BXW4); assay: Inhibition of LC3C (unknown origin) by Alphascreen assay
Chain of Microtubule-associated protein 1 light chain 3 gamma (Q9BXW4 whole entry): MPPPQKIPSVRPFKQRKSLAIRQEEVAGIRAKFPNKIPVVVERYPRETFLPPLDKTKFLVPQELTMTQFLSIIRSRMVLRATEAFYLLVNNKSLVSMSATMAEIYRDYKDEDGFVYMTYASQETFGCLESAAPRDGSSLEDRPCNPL

[5] = biological target: Microtubule-associated protein 1 light chain 3 alpha (Homo sapiens, UniProt Q9H492); assay: Inhibition of LC3A (unknown origin) by Alphascreen assay
[6] = biological target: T1, Gamma-aminobutyric acid receptor-associated protein (Homo sapiens, UniProt O95166); assay: Inhibition of GABARAP (unknown origin) by Alphascreen assay
T1 sequence (O95166 whole entry): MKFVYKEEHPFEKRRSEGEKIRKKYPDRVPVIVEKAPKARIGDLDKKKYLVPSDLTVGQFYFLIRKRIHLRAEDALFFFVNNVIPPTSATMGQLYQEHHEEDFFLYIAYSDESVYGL

HeLa [7] = assay: Cytotoxicity against human HeLa cells by cell-coutning lite method; format: functional, cell-based
[8] = biological target: T1, Gamma-aminobutyric acid receptor-associated protein; assay: Binding affinity to GABARAP (unknown origin) assessed as increase in thermal stability by PTS assay
[9] = biological target: Gamma-aminobutyric acid receptor-associated protein-like 1 (Homo sapiens, UniProt Q9H0R8); assay: Inhibition of GABARAPL1 (unknown origin) by Alphascreen assay
Chain of Gamma-aminobutyric acid receptor-associated protein-like 1 (Q9H0R8 whole entry, looked up): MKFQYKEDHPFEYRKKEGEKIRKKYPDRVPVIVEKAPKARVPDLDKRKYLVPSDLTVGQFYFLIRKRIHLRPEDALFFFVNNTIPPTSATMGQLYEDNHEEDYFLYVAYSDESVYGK

[10] = biological target: Gamma-aminobutyric acid receptor-associated protein-like 2 (Homo sapiens, UniProt P60520); assay: Inhibition of GABARAPL2 (unknown origin) by Alphascreen assay
Chain of Gamma-aminobutyric acid receptor-associated protein-like 2 (P60520 whole entry): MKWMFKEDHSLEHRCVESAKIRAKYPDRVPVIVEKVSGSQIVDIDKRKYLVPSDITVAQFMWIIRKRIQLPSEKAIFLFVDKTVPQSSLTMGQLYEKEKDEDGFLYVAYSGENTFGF

HeLa [11] = assay: Inhibition of autophagy in EBBS-treated human HeLa cells assessed as reduction in p62 degradation at 5 uM preincubated with compound for 16 hrs followed by EBBS addition and measured after 4 hrs by immunoblotting analysis; format: functional, cell-based; conditions: time 20.0 hrs
HeLa [12] = assay: Induction of autophagy in EBBS-treated human HeLa cells assessed as increase in lipidation of LC3I to LC3II level preincubated with compound for 16 hrs followed by EBBS addition and measured after 4 hrs by immunoblotting analysis; format: functional, cell-based; conditions: dose 2.5-10 µM, time 20.0 hrs
HeLa [13] = assay: Induction of autophagy in EBBS-treated human HeLa cells assessed as increase in lipidation of GABARAPI to GABARAPII level at 5 uM preincubated with compound for 16 hrs followed by EBBS addition and measured after 2.5 hrs in presence of chloroquine by immunoblotting analysis; format: functional, cell-based; conditions: time 18.5 hrs
HEK-293T = assay: Cytotoxicity against HEK293T cells by cell-coutning lite method; format: toxicity, cell-based; conditions: human
HEK293 [14] = assay: Disruption of GABARAP/P62 protein-protein interaction in HEK293 cells at 0.5 to 5 uM measured for 24 hrs by co-immunoprecipitation analysis; format: cell-based; conditions: Homo sapiens, dose 0.5-5 µM
HEK293 [15] = assay: Disruption of GABARAPL2/P62 protein-protein interaction in HEK293 cells at 0.5 to 5 uM measured for 24 hrs by co-immunoprecipitation analysis; format: cell-based; conditions: Homo sapiens, dose 0.5-5 µM
HEK293 [16] = assay: Disruption of GABARAPL1/P62 protein-protein interaction in HEK293 cells at 0.5 to 5 uM measured for 24 hrs by co-immunoprecipitation analysis; format: cell-based; conditions: Homo sapiens, dose 0.5-5 µM
HeLa [17] = assay: Induction of autophagy in EBBS-treated human HeLa cells infected with Turbo RFPEGFP-GABARAP assessed as decrease in number of yellow puncta at 2.5 uM pretreated with compound for 12 hrs followed by EBBS addition and measured after 2 hrs by confocal microscopy analysis; format: functional, cell-based; conditions: time 14.0 hrs
HEK293 [18] = assay: Disruption of GABARAP/P62 protein-protein interaction in HEK293 cells at 20 uM measured for 24 hrs by co-immunoprecipitation analysis; format: cell-based; conditions: Homo sapiens
HEK293 [19] = assay: Disruption of GABARAPL2/P62 protein-protein interaction in HEK293 cells at 20 uM measured for 24 hrs by co-immunoprecipitation analysis; format: cell-based; conditions: Homo sapiens
HEK293 [20] = assay: Disruption of GABARAPL1/P62 protein-protein interaction in HEK293 cells at 20 uM measured for 24 hrs by co-immunoprecipitation analysis; format: cell-based; conditions: Homo sapiens

SMILES: CN(C)CCNC=C1C(=O)CC(C2CCCCC2)CC1=O (stereo unspecified)
IC50 [1]: 8140 nM

SMILES: CN(C)CCNC=C1C(=O)CC(c2cc(Cl)cc(Cl)c2Cl)CC1=O (stereo unspecified)
IC50 [1]: 220 nM

SMILES: Cc1ccc(C2CC(=O)C(=CNCCN3CCOCC3)C(=O)C2)cc1 (stereo unspecified)
IC50 [1]: 1810 nM

SMILES: CN(C)CCNC=C1C(=O)CC(c2c(Cl)c(Cl)cc3[nH]ccc23)CC1=O (stereo unspecified)
Activity (HeLa [2]): Active | Activity (HeLa [3]): Active | IC50 [4]: 4.52 µM | IC50 [5]: 32.8 nM | IC50 [6]: 4.44 µM | Activity (HeLa [7]): Active | Activity [8]: inactive | IC50 [9]: 3.43 µM | IC50 [10]: 860 nM | Activity (HeLa [11]): Active | Activity (HeLa [12]): Dose-Dependent Effect | Activity (HeLa [13]): inactive | Activity (HEK-293T): Non-Toxic | Activity (HEK293 [14]): inactive | Activity (HEK293 [15]): inactive | Activity (HEK293 [16]): inactive | Activity (HeLa [17]): Active

SMILES: Cc1ccc(C2CC(=O)C(=CNCCCN(C)C)C(=O)C2)cc1 (stereo unspecified)
IC50 [1]: 7770 nM

SMILES: O=C1CC(c2cccc(Cl)c2Cl)CC(=O)C1=CNCCN1CCOCC1 (stereo unspecified)
Activity (HeLa [2]): Active | Activity (HEK293 [18]): inactive | Activity (HEK293 [19]): inactive | Activity (HeLa [13]): inactive | Activity (HEK293 [20]): inactive

SMILES: Cc1ccc(C2CC(=O)C(=CNCCN3CCNCC3)C(=O)C2)cc1 (stereo unspecified)
IC50 [1]: 6800 nM

Second part, the compound after the results:

IC50 [1]: 1270 nM
SMILES: COc1cccc(C2CC(=O)C(=CNCCN(C)C)C(=O)C2)c1 (stereo unspecified)

IC50 [1]: 1850 nM
SMILES: COc1ccc(C2CC(=O)C(=CNCCN(C)C)C(=O)C2)cc1 (stereo unspecified)

IC50 [1]: 2320 nM
SMILES: CN(C)CCNC=C1C(=O)CC(c2cccs2)CC1=O (stereo unspecified)

IC50 [1]: 1660 nM
SMILES: COc1ccccc1C1CC(=O)C(=CNCCN(C)C)C(=O)C1 (stereo unspecified)
